Test results as given in patent publication EP3060679B1, “METHOD AND KIT FOR DETERMINING WHETHER A SUBJECT SHOWS AN IMMUNE RESPONSE” (BioNTech Diagnostics GmbH, priority 2013, dated 2015).
Like-named read-outs stand apart in the source and are kept apart here.

Assays:
HLA-B∗0702 = system: HLA-B∗0702
Excerpt: (§1) In addition HLA-expression profiles are established from tumor biopsies that are taken from the patients 12 weeks after the last vaccination.
For further investigation new biopsies of the tumors of both patients are taken for analysis of tumor antigen expression and the establishment of a HLA expression profile using the method of the present invention.

tumor = system: tumor
Experimental: (§2) Before the vaccination therapy is started, the method described herein above is applied to establish HLA- and TCR-specific gene expression profiles of the patient's PBMCs. Furthermore the tumor size/mass is determined by CT scan. During therapy, the patients received 1 mg of the HLA-B^∗0702-restricted peptide […] every 2 weeks for 6 doses.
as §1

patient's PBMCs = conditions: 6 weeks after vaccination vs before treatment
Experimental: The above described method is used for monitoring an immune response in 2 melanoma patients that were treated by an immunotherapy based on a peptide vaccine consisting of the HLA-B^∗0702-restricted T cell epitope […] (aa97-111) (SEQ ID NO: 40) of the tumor-associated antigen NY-ESO 1. In order to evaluate whether or not patients would benefit from a corresponding peptide vaccination therapy, HLA genotyping is done to test for HLA-B^∗0702 and tumor biopsies are examined for high NY-ESO 1 expression.
as §2, §1

## ATPMEAELARRSLAQ
HLA-B∗0702; patient 1, tumor biopsy 12 weeks after the last vaccination
  HLA expression profile of tumor cells: normal HLA expression profile
HLA-B∗0702; patient 2, tumor biopsy 12 weeks after the last vaccination
  expression of HLA-B∗0702 in tumor cells: completely lost
HLA-B∗0702; patients' PBMCs, all time points
  expression of isotypes of HLA class I and II: expressed at normal levels
tumor; both patients, along with the T cell response seen 6 weeks after vaccination
  tumor mass in the CT scan: loss of the tumor mass
tumor; patient 1, 12 weeks after vaccination
  tumor in CT scan: continuous tumor regression
tumor; patient 2, 12 weeks after vaccination
  tumor in CT scan: growing again
patient's PBMCs; patient 1, PBMCs
  increased expression of the TCR-β sequence V4.1 D2 J2.1 C2: 9.6 fold
patient's PBMCs; patient 1, PBMCs, 1 mg peptide every 2 weeks for 6 doses
  increased expression of the TCR-α sequence V1.1 J23 C: 10.3 fold
patient's PBMCs; patient 2, PBMCs
  increased expression of the TCR-α sequence V1.1 J23 C: 9.3 fold
  increased expression of the TCR-β sequence V4.1 D2 J2.1 C2: 10.6 fold
